Reference: publication PMC3006138, “Fexinidazole – A New Oral Nitroimidazole Drug Candidate Entering Clinical Development for the Treatment of Sleeping Sickness” (PLoS Neglected Tropical Diseases, 2010)
Values joined by “and” are separate entries in the source; they are usually repeats but may differ in a detail not shown here. Identical values can stand only once.

Assay: Whole-body autoradiography
Type: in vivo, rat
Procedure: Whole-body autoradiography in rats was conducted using [^14C]-radiolabelled fexinidazole. The site of the [^14C] label in the fexinidazole molecule on the bridging carbon atom ensured that the radioactivity would remain associated with both the sulfoxide and sulfone metabolites. The radiolabelled compound was administered at the dose of 800 mg/kg (approximately 3.7 MBq/kg, 100 µCi/kg) by gastric gavage to eight male albino Sprague Dawley rats. Two animals were sacrificed at each time point 2, 8, 24 or 48 h after administration and the quantitative radioactivity distribution in the organs and tissues was evaluated using quantitative whole-body autoradiography. […]
This study was conducted according to Protocol N° 0510-2007. A copy of the experimental protocol is included in Appendix 1.
FEXINIDAZOLE is a 5-nitroimidazole derivative biologically active against Trypanosoma parasites (T.b. rhodesiense and T.b. brucei) and useful in the treatment of the Human African Trypanosomiasis (HAT), known as sleeping sickness.
FEXINIDAZOLE is a compound currently under development by the Study Sponsor.
The objective of this study was to obtain information on the tissue distribution of radioactive drug-related material following oral administration of [14C]-FEXINIDAZOLE (800 mg/kg) to male Sprague Dawley rats.
The albino Sprague Dawley rat was chosen as the species for this study since it was one of the species used in the toxicological evaluation of the test compound. Only male animals were used as no gender differences were expected with respect to the aim of the study. The oral route of administration was chosen as this is the intended therapeutic route. The dose level was selected in agreement with the Study Sponsor and it is within the pharmacological relevant range. No overt toxicity was expected after single dosing at […]
The study was conducted on 8 male animals after single oral administration of [14C]- FEXINIDAZOLE (800 mg/kg, approximately 3.7 MBq/kg, 100 µCi/kg). The animals were sacrificed at 2, 8,24 and 48 hours after administration and each rat was analyzed by a validated Whole Body Autoradioluminography (WBA) method, in order to evaluate the quantitative tissue distribution of radioactivity.
A summary of the experimental design is reported below:
Animal no. Date of Dosing Administered Dose Samples collected and (oral administration) analyzed
M3, M4 100 µCi/kg Whole body sections
The experimental phase of the study started on June 10, 2008 and was completed on July […]
6.6. Preparation and Analysis of Dose Formulation
The test formulation was prepared on the day of dosing by suspending unlabelled FEXINIDAZOLE and [14C]-FEXINIDAZOLE (see section 6.1) in 5% Tween 80 and 0.5% Methyl cellulose 400 cP (Methocel) in water, in order to obtain [14C]- FEXINIDAZOLE at the final target concentration of 80 mg/mL, corresponding to a radioactivity concentration of about 370 kBq/mL (10 µCi/mL).
The test formulation was prepared by suspending an appropriate amount of unlabelled FEXINIDAZOLE in the dose vehicle. This formulation was homogenised using a Potter-Elvehjem homogenizer apparatus (teflon pestle of approx. 30 mm x 53 mm and glass tube of 40 mL), in order to obtain a fine suspension by up-and-down strokes, gently made by hand. The formulation was then collected and transferred from the homogeniser glass tube to the glass pot containing the [14C]-FEXINIDAZOLE.
During the preparation the test formulation was protected from light as far as possible.
The radioactivity concentration and homogeneity of the test formulation were determined, before administration, by liquid scintillation counting of triplicate weighed aliquots of test formulation. The radiolabelled test formulation was used immediately after formulation.
6.7.1. Administered Doses
The dose of [14C]-FEXINIDAZOLE was orally administered by gastric gavage at the target dose level of 800 mg/kg (radioactivity dose of about 3.7 MBq/kg, 100 µCi/kg) and at a target dose volume of about 10 mL/kg. […]

In the case of `CSc1ccc(OCc2ncc([N+](=O)[O-])n2C)cc1` [Fexinidazole, 1-methyl-2-((p-(methylthio)phenoxy)methyl)-5-nitroimidazole], the “brain-to-blood concentration ratio of radioactivity” value (800 mg/kg po, all times) is reported as 0.4–0.6, the Mean radioactivity concentration (Blood, 2h) is reported as 303.2 µgeq/g and the Mean radioactivity concentration (Blood, 8h) is reported as 273.0 µgeq/g. For the same molecule, the Mean radioactivity concentration (Blood, 24h) was 51.3 µgeq/g, the Mean radioactivity concentration (Blood, 48h) was 14.3 µgeq/g and the Mean radioactivity concentration (Brain, 2h) was 159.7 µgeq/g. The Mean radioactivity concentration (Brain, 8h) was 148.5 µgeq/g, the Mean radioactivity concentration (Brain, 24h) was 22.4 µgeq/g and the Mean radioactivity concentration (Brain, 48h) was 5.7 µgeq/g. The Radioactivity concentration (Intestine wall, 2h, listed as [14C]-FEXINIDAZOLE) was 4900 - 5600 µgeq/g and 5281.4 µgeq/g.
